Entries after “also recorded” stand apart in the source; their conditions may differ.
Columns and labels:
[1] = system: Prognostic Epigenetic Signature (PES, 25-gene signature) in HCV Jc1-infected Huh7.5.1dif cells; assay: PES cell-based model: HCV-infected differentiated Huh7.5.1 cells, PES expression by RNA-Seq or nCounter; design: species or system human; settings: JQ1 50 nM, Nizatidine 10 μM, Captopril 1 μM, Pioglitazone 1 μM
Experimental: Cell-based models. Huh7.5.1 and human stellate LX2 cells were cultured in Dulbecco's Modified Eagle Medium (DMEM) supplemented with 10% heat-decomplemented fetal bovine serum FBS, gentamycin (0.05 mg/mL) and non-essential amino acids (complete DMEM) at 37° C. with 5% CO2. For proliferation arrest and differentiation ([…] cells), Huh7.5.1 cells were cultured in complete DMEM supplemented 1% DMSO [5]. All cell lines were certified mycoplasma-free. To analyze the PES induction […] cells were infected with HCV Jc1 (genotype 2a/2a) for a total of 10 days. Cells were then treated with Captopril (1 μM), Nizatidine (10 μM), Pioglitazone (1 μM), JQ1 (50 nM). For the FFA model, Huh7.5.1^dif cells were cocultured with 20% LX-2 cells. Following co-culture for 3 days in DMEM supplemented with 10% heat-decomplemented FBS, gentamycin and 1% DMSO at 37° C. and 5% CO2, cells were incubated with FFA (800 μM oleic acid and 400 μM palmitic acid) for 72 h.
(§1) Analysis of gene expression of the prognostic epigenetic signature (PES) using nCounter expression or RNASeq analyses. Profiling of the PES was performed using Nanostring nCounter assay or RNASeq as described. Induction or suppression of the PES in gene expression data was determined as previously reported using the Gene Set Enrichment Analysis (GSEA), implemented in GenePattern genomic analysis toolkits. […]

[2] = system: 1693-gene signature and 25-gene signature (PES); assay: Transcriptomic profiling (RNA-Seq, GSEA) of livers of DEN/CDAHFD mice; assay type: in vivo, mouse
Experimental: ChIPmentation based ChIP-Seq and RNA next-generation sequencing (NGS). ChIPmentation-based ChIP-Seq was performed as described. RNA-Seq was performed as described. Mouse RNA-Seq data was processed as described for patient's data but was instead mapped to the mouse genome mm10 and annotated using the Gencode vM15 gene annotation. Processing of ChIPmentation data was described, and data was partially derived from BioProject PRJNA506130. Since late stage fibrosis patients have the highest HCC risk, patient tissues from late stage fibrosis (F3 and F4) samples were included for all H3K27ac analyses as well as from the external CHC RNA-Seq dataset (GSE84346)[12]. Transcriptomic data for NASH patients was derived from external expression dataset (GSE115193)[13] and data for DAA-cured patients was published in BioProject PRJNA506130[6]. The RNA-Seq data from HCV-infected liver cells was published in (GSE126831)[14].
as §1, with “toolkits. False discovery rate (FDR)<0.05 was regarded as statistically significant.” for “toolkits.”

[3] = system: DEN and CDAHFD-induced hepatocarcinogenesis; assay: DEN/CDAHFD NASH-fibrosis-HCC mouse model: liver disease, fibrosis and tumor burden; assay type: in vivo; settings: DEN/CDAHFD mice
From the text: FIG. 8. Reversal of the PES poor prognosis status in vivo by a bromodomain-4 inhibitor translates into improvement of liver disease and cancer prevention (A) Schematic representation of in vivo the proof-of-concept study using a mouse model of DEN and choline-deficient, L-amino acid-defined, high-fat diet (CDAHFD)-induced hepatocarcinogenesis. (B) Transcriptomic changes of genes with significant H3K27ac modifications from livers from patients with NASH and chronic hepatitis C (CHC) as explained in FIG. 1D (overlapping genes) and corresponding changes in vehicle or JQ1-treated DEN/CDAHFD mice. (C) Venn diagram showing epigenetically and transcriptionally altered genes in CHC/NASH patients and in DEN/CDAHFD mice, that were corrected by JQ1 treatment. Genes that harbor epigenetic and transcriptomic changes were identified in CHC/NASH patients and in DEN/CDAHFD mice. Among the changed genes, the inventors analyzed whether JQ1 could revert back their H3K27ac levels and their transcript expression levels. (H) GSEA enrichments of 1693-gene signature and 25-gene signature (PES) gene sets in data shown for JQ1-treated DEN/CDAHFD mice. (D) Improvement of liver disease and prevention of HCC. The global status corresponds to the difference between low risk- and high risk-gene expression. GSEA enrichments of 1693-gene signature and 25-gene signature (PES) gene sets in data shown for JQ1-treatment on panel B. The global status corresponds to the difference between low risk- and high risk-gene expression. […] Results are expressed as means±SEM. (F) Representative macroscopic photographs of livers (×1.5 magnified), H&E and Sirius red staining of liver sections from vehicle and JQ1-treated mice. Tumor nodules are indicated by an arrowhead and are delimited by dashed lines. […] Fibrosis stage was evaluated through quantitative digital analysis of whole-scanned liver sections (collagen proportional area (CPA)) in JQ1-treated (n=3) compared with JQ1-untreated (n=3) mice. Results are expressed as means±SD.
Example 5: Reversal of the PES poor prognosis status in vivo translates into improvement of liver disease, inhibition of fibrosis progession and cancer prevention. To investigate (1) whether the PES is modeled in animal models for liver disease and (2) reversal of the […] poor prognosis status by a compound correlates with improvement of liver disease and cancer prevention, the inventors studied the 1693 gene signature and the 25 gene subset expression in a NASH-fibrosis-HCC mouse model, in which the mice are treated with the BRD inhibitor JQ1 following development of liver disease. In this model a Choline-deficient high-fat-diet (CDHFD) diet combined with DEN, a chemical carcinogen, induces liver fibrosis progressing to HCC. […] Mice were treated with JQ1 after 6 weeks of CDAHFD feeding when liver disease developed (FIG. 8A).

SMILES | Reversal of PES (25-gene signature) from HCC high risk, poor prognosis status to HCC low risk, good prognosis status [1] | GSEA enrichment of 1693-gene signature and 25-gene signature (PES) gene sets after treatment [2] | Expression of H3K27ac-altered genes in patients reverted by treatment ([2]; 1007 out of 1693 genes) [%] | Tumor burden in vivo [3] | Liver fibrosis measured by collagen proportionate area (CPA) ([3]; treated n=3 vs untreated n=3) | Body weight ([3]; treated n=8 vs untreated n=8) | Liver weight ([3]; treated n=8 vs untreated n=8) | Number of tumor nodules ([3]; treated n=8 vs untreated n=8)
Cc1sc2c(c1C)C(c1ccc(Cl)cc1)=N[C@@H](CC(=O)OC(C)(C)C)c1nnc(C)n1-2 [JQ1] | Reversal of the poor prognosis/HCC high risk genes to good prognosis/HCC low risk expression; also recorded: reverted the 25-gene signature (PES) | correspondingly (i.e., reversely) enriched | 59 | significantly reduces tumor burden | efficiently reduces liver fibrosis; also recorded: significantly (p<0.05) reduced | stable; also recorded: without altering | significantly reduced | reduced; also recorded: overall decrease in their number
CNC(=C[N+](=O)[O-])NCCSCc1csc(CN(C)C)n1 [Nizatidine] | Reversal of the poor prognosis/HCC high risk genes to good prognosis/HCC low risk expression | – | – | – | – | – | – | –

— US20230313299A1, “METHOD FOR DIAGNOSIS AND/OR PROGNOSIS OF LIVER DISEASE PROGRESSION AND RISK OF HEPATOCELLULAR CARCINOMA AND DISCOVERY OF THERAPEUTIC COMPOUNDS AND TARGETS TO TREAT LIVER DISEASE AND CANCER” (UNIVERSITÉ DE STRASBOURG, priority 2020, published 2023)
